pKd: −log10 of the molar value.
Assays:
FLJ10889-derived protein = target: T1, FLJ10889-derived protein (Homo sapiens, UniProt Q7L7V1, A496G/L459S/P686L/V123M); assay: Biacore S51 surface plasmon resonance binding to FLJ10889-derived protein
T1 construct: made in house; host or cells: wheat germ cell-free synthesis system (PROTEIOS, Toyobo)
T1 sequence (Q7L7V1 1-743 V123M/L459S/A496G/P686L): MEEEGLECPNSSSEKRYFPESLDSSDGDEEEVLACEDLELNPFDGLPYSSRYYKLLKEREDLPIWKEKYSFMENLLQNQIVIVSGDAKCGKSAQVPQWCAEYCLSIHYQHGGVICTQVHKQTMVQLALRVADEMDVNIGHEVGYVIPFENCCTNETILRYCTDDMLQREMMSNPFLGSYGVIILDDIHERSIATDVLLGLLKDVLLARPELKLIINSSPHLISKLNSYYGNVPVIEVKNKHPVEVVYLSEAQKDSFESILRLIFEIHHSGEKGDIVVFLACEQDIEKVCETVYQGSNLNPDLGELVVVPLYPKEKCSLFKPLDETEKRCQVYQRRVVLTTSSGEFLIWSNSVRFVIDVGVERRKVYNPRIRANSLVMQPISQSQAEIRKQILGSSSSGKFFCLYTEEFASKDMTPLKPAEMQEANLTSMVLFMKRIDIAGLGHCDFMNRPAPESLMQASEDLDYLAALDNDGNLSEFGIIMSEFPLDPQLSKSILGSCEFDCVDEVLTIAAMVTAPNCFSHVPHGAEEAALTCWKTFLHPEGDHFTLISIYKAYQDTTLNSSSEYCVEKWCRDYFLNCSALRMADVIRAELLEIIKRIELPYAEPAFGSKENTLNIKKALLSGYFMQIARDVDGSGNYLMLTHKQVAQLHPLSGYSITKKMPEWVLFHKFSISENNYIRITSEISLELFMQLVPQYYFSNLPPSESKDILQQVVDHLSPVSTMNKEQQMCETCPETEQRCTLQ
Protocol: (§1) A desired gene of a human full-length cDNA clone was BP-reacted with the PCR cloning vector Gateway pDONR201 using the Invitrogen Gateway system per the kit protocol to yield an entry vector. […]
(§2) The surface of the CM5 sensor chip for S51 commercially available from Biacore Company was subjected to an NTA treatment with 1 M EDC, 1.33 M NHS and 16 mg/ml AB-NTA (pH 9.2) to prepare an NTA sensor chip for S51. […] A correction for the effect of DMSO contained in the compound solutions and running buffer (solvent correction) was performed on the basis of measured results from separately prepared solutions mimicking the running buffer, and containing 3.8 to 5.1% of DMSO (8 points). The compound characterization assay program for Biacore S51 was performed to measure the interactions between immobilized ligands (proteins) and analytes (compounds; 62.5 μM to 0.244 μM), and the results were analyzed using a dedicated software program. […]

FLJ11045-derived protein = target: T2, FLJ11045-derived protein (Homo sapiens, UniProt Q9BXT8, E1380K); assay: Biacore S51 surface plasmon resonance binding to FLJ11045-derived protein
T2 construct: made in house; host or cells: wheat germ cell-free synthesis system (PROTEIOS, Toyobo)
T2 sequence (Q9BXT8 949-1581 isoform Q9BXT8-4 E1338K): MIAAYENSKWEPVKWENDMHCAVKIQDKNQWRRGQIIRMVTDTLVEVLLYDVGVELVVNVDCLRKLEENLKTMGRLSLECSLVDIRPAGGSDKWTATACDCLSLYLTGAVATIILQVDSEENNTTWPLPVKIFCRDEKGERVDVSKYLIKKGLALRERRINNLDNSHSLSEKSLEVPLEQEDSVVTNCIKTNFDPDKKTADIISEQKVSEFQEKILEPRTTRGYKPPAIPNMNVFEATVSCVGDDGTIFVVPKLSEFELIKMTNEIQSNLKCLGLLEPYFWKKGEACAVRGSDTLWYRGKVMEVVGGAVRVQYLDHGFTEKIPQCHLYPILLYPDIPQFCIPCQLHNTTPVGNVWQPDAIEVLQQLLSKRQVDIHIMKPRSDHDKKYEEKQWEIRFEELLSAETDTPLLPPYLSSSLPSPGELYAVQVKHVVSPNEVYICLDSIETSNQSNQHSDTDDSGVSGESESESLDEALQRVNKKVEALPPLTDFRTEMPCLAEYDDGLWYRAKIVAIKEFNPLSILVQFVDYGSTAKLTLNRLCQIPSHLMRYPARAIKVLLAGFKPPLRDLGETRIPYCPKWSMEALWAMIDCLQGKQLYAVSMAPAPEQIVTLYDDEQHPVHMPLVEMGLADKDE
From the text: A desired gene of a human full-length cDNA clone was BP-reacted with the PCR cloning vector Gateway pDONR201 using the Invitrogen Gateway system per the kit protocol to yield an entry vector. As the destination vector for the Gateway system, a Gateway cassette having a Gateway recombinant sequence was introduced to allow the utilization of the Gateway system on the basis of pEU3-NII (Toyobo), which matches with a cell-free protein synthesis system (PROTEIOS) of Toyobo Co., Ltd., which employs a wheat germ extract, and a double tag destination vector modified using the PCR method to allow the expression of a peptide having a histidine tag and a FLAG tag sequence in the N-terminal region of the expressed protein was prepared.
The prepared double tag destination vector and entry vector were […] using the Invitrogen Gateway system per the protocol and the Escherichia coli competent cell DH5α was transformed therewith; a clone incorporating the expression vector was selected. A plasmid was prepared from the obtained clone using the QIAfilter Midi kit (QUIAGEN) per the kit protocol. The plasmid obtained was subjected to phenol/chloroform treatment per the protocol for PROTEIOS (Toyobo) to inactivate the RNase to yield a purified expression plasmid.
A recombinant protein was synthesized using a cell-free protein synthesis system (PROTEIOS) of Toyobo Co., Ltd., which employs a wheat germ extract. Subsequently, mRNA was prepared from the expression plasmid acquired by the method described in section 1 above per the protocol for PROTEIOS. With 20 μg of the mRNA acquired, a protein was synthesized per the protocol for PROTEIOS using two wells of a 96-well microtiter plate. The protein synthesized was subjected to high-speed centrifugation, the precipitate was removed, and the resulting soluble fraction was purified using ANTI-FLAG M2 Affinity Gel (SIGMA Company) having an anti-FLAG tag antibody immobilized hereto per the protocol, to yield a purified protein.
as §2

[1] = system: mutant SOD-transgenic mouse showing ALS-like symptoms; conditions: intraperitoneally administered; cited from earlier work
FLJ14583-derived protein = target: T3, FLJ14583-derived protein (Homo sapiens, UniProt Q12816); assay: Biacore S51 surface plasmon resonance binding to FLJ14583-derived protein
T3 construct: made in house; host or cells: wheat germ cell-free synthesis system (PROTEIOS, Toyobo)
T3 sequence (Q12816 1-706 isoform Q12816-2): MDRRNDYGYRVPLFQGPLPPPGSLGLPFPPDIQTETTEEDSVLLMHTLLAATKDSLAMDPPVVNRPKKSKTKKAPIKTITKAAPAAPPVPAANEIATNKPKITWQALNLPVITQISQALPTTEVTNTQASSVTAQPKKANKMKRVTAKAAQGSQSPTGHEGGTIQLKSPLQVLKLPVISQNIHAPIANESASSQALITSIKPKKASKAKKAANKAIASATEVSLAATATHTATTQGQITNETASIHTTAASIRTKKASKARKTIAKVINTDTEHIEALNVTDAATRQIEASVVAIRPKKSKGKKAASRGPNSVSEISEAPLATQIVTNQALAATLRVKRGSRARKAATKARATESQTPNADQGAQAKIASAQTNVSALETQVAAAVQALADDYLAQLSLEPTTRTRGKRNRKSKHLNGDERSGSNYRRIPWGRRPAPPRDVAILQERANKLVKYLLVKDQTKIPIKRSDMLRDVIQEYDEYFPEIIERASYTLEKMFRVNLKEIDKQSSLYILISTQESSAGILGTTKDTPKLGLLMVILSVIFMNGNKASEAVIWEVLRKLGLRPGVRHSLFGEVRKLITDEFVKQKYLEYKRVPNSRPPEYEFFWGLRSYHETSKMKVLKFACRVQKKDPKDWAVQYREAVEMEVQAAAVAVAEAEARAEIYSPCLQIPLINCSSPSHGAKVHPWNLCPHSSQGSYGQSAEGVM
Protocol: as §1, §2

FLJ10335-derived protein = target: T4, FLJ10335-derived protein (Homo sapiens, UniProt Q9NW38, S77P); assay: Biacore S51 surface plasmon resonance binding to FLJ10335-derived protein
T4 construct: made in house; host or cells: wheat germ cell-free synthesis system (PROTEIOS, Toyobo)
T4 sequence (Q9NW38 1-375 S77P): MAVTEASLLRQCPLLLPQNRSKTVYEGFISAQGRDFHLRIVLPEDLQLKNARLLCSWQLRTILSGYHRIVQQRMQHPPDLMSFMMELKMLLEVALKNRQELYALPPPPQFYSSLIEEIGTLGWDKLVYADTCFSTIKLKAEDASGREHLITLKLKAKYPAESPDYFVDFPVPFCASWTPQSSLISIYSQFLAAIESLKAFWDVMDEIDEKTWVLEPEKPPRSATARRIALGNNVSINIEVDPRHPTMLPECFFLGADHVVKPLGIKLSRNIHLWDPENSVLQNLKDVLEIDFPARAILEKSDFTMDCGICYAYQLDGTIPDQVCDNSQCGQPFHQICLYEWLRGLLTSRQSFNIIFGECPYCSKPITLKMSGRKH
Protocol: as §1, §2

FLJ12502-derived protein = target: T5, FLJ12502-derived protein (Homo sapiens, UniProt Q7Z3D6); assay: Biacore S51 surface plasmon resonance binding to FLJ12502-derived protein
T5 construct: made in house; host or cells: wheat germ cell-free synthesis system (PROTEIOS, Toyobo)
T5 sequence (Q7Z3D6 29-616): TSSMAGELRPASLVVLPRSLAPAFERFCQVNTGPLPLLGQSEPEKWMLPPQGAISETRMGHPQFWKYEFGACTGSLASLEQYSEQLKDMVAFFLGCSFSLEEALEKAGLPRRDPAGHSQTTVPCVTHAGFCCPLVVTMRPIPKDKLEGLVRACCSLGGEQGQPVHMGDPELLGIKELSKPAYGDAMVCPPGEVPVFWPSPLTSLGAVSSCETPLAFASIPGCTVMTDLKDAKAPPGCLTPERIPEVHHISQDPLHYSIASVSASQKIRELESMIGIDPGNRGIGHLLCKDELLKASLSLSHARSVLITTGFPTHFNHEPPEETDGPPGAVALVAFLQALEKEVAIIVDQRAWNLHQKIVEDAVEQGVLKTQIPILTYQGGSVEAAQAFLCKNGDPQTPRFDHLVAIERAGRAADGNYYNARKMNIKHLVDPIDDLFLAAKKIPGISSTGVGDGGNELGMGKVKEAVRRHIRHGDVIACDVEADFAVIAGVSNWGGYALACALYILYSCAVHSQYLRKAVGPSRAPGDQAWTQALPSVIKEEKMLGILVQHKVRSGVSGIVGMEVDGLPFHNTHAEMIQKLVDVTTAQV
Protocol: as §1, §2

For `CC[C@@]1(O)C[C@H](O[C@H]2C[C@H](N(C)C)[C@H](O[C@H]3C[C@H](O)[C@H](O[C@H]4CCC(=O)[C@H](C)O4)[C@H](C)O3)[C@H](C)O2)c2c(cc3c(c2O)C(=O)c2c(O)cccc2C3=O)[C@H]1C(=O)OC` [aclarubicin], the “interaction with the protein (binding level dose-proportional, saturated at high doses)” value (shortened to “interaction with the protein”) (FLJ10889-derived protein) was “interact specifically”.

For `CC1=C(C(=O)O)N2C(=O)[C@@H](NC(=O)[C@H](N)c3ccc(O)cc3)[C@H]2SC1` [cefadroxil], the pKd (FLJ11045-derived protein; Biacore S51, immobilized FLJ11045-derived protein, analyte 62.5 μM to 0.244 μM, read-out: binding dissociation constant Kd) was 4.94 and the “interaction with the protein” value (FLJ11045-derived protein; FLJ11045-derived protein, Biacore S51) was “interact specifically”.

In the case of `CO/N=C(\C(=O)N[C@@H]1C(=O)N2C(C(=O)O)=C(CSc3nc(=O)c(=O)[nH]n3C)CS[C@H]12)c1csc(N)n1` [ceftriaxone], the “expression of GLT1 in the spinal cord” value [1] is listed as “increased”, the muscle strength [1] is listed as “increase in the muscle strength” and the neuron number [1] is listed as “recovery of neuron number”.

In the case of `Cc1onc(-c2c(Cl)cccc2Cl)c1C(=O)N[C@@H]1C(=O)N2[C@@H]1SC(C)(C)[C@@H]2C(=O)O` [dicloxacillin], the pKd (FLJ14583-derived protein; Biacore S51, immobilized FLJ14583-derived protein, analyte 62.5 μM to 0.244 μM, read-out: binding dissociation constant Kd) was 4.64 and the “interaction with the protein” value (FLJ14583-derived protein; FLJ14583-derived protein, Biacore S51) was “interact specifically”.

In the case of `CC(C)C[C@H](NC(=O)[C@@H](O)[C@H](N)Cc1ccccc1)C(=O)O` [ubenimex], the “interaction with the protein” value (FLJ10335-derived protein) was “interact specifically”.

For `C[C@H]1[C@H](C)CC[C@]2(C(=O)O)CC[C@]3(C)C(=CC[C@@H]4[C@@]5(C)CC[C@H](O)C(C)(C)[C@@H]5CC[C@]43C)[C@H]12` [ursolic acid], the “interaction with the protein” value (FLJ12502-derived protein) was “interact specifically”.
